# Measured values reported in ChEMBL document CHEMBL6178022, “Discovery and Optimization of Potent PROTAC Degraders of Phosphoinositide 3-Kinase with Significant in Vivo Anticancer Efficacy” (J Med Chem, 2025).
# Legend:
# [1] = Drug metabolism in human liver microsomes at 2 uM measured up to 60 mins in absence of NADPH by LC-MS/MS analysis; assay type: ADME, Microsome; details: 1 h
# [2] = Metabolic stability in monkey plasma at 2 uM measured up to 60 mins by LC-MS/MS analysis; assay type: ADME, cell-free, Macaca mulatta; details: rhesus monkey, 1 h
# [3] = MRT (0 to t) in ICR mouse at 30 mg/kg, ip measured for 24 hrs by LC-MS/MS analysis; assay type: ADME, organism-based; details: in vivo
# [4] = Toxicity in male BALB/c nude mouse model xenografted with human DOHH-2 cells assessed as body weight loss at 30 mg/kg, ip qd treated for 21 days consecutively; assay type: organism-based; details: in vivo, 504 h, time 21 day
# [5] = Drug metabolism in dog liver microsomes at 2 uM measured up to 60 mins in absence of NADPH by LC-MS/MS analysis; assay type: ADME, Canis lupus familiaris, Microsome; details: 1 h
# T47D [6] = assay: Antiproliferative activity against human T47D cells assessed as inhibition of cell viability incubated for 3 days by MTT/CTG assay; details: 72 h
# [7] = Metabolic stability in monkey liver microsomes assessed as half life at 2 uM measured up to 60 mins by LC-MS/MS analysis; assay type: ADME, Macaca mulatta, Microsome; details: rhesus monkey
# [8] = Metabolic stability in rat liver microsomes assessed as half life at 2 uM measured up to 60 mins by LC-MS/MS analysis; assay type: ADME, Microsome
# [9] = MRT (0 to t) in Sprague-Dawley rat at 1.5 mg/kg, iv measured for 24 hrs by LC-MS/MS analysis; assay type: ADME, organism-based; details: in vivo
# [10] = Metabolic stability in mouse liver microsomes assessed as half life at 2 uM measured up to 60 mins by LC-MS/MS analysis; assay type: ADME, Microsome
# [11] = AUC (0 to t) in ICR mouse at 30 mg/kg, ip measured for 24 hrs by LC-MS/MS analysis; assay type: ADME, organism-based; details: in vivo
# [12] = Cytotoxicity against human AC16 [Human hybrid] cells; assay type: toxicity, cell-based
# [13] = Metabolic stability in human liver microsomes assessed as half life at 2 uM measured up to 60 mins by LC-MS/MS analysis; assay type: ADME, Microsome
# LNCaP = assay: Antiproliferative activity against human LNCaP cells assessed as inhibition of cell viability incubated for 3 days by MTT/CTG assay; details: 72 h
# [14] = AUC (0 to t) in ICR mouse at 3 mg/kg, iv measured for 24 hrs by LC-MS/MS analysis; assay type: ADME, organism-based; details: in vivo
# PC-3 = assay: Antiproliferative activity against human PC-3 cells assessed as inhibition of cell viability incubated for 3 days by MTT/CTG assay; details: PC-3, 72 h
# [15] = Toxicity in male BALB/c nude mouse model xenografted with human HGC-27 cells assessed as drug tolerance at 30 to 60 mg/kg, ip qd treated for 14 days consecutively; assay type: organism-based; details: in vivo, 336 h, dose 30-60 mg/kg, time 14 day
# [16] = Toxicity in male BALB/c nude mouse model xenografted with human HGC-27 cells assessed as body weight change at 30 to 60 mg/kg, ip qd treated for 14 days consecutively; assay type: organism-based; details: in vivo, 336 h, dose 30-60 mg/kg, time 14 day
# [17] = Drug metabolism in mouse liver microsomes at 2 uM measured up to 60 mins in absence of NADPH by LC-MS/MS analysis; assay type: ADME, Microsome; details: 1 h
# [18] = Metabolic stability in dog liver microsomes assessed as half life at 2 uM measured up to 60 mins by LC-MS/MS analysis; assay type: ADME, Canis lupus familiaris, Microsome
# [19] = Oral bioavailability in ICR mouse at 30 mg/kg measured for 24 hrs by LC-MS/MS analysis; assay type: ADME, organism-based; details: in vivo
# [20] = Toxicity in C57BL/6J mouse assessed as body weight change at 100 mg/kg, ip treated daily for 7 days; assay type: organism-based; details: in vivo, 168 h, time 7 day
# HGC-27 [21] = assay: Antitumor activity against human HGC-27 cells xenografted in male BALB/c nude mouse model at 60 mg/kg, ip qd treated for 14 days consecutively relative to control; assay type: functional; details: HGC-27, 336 h, time 14 day, read-out: TGI
# [22] = MRT (0 to t) in Sprague-Dawley rat at 15 mg/kg, ip measured for 24 hrs by LC-MS/MS analysis; assay type: ADME, organism-based; details: in vivo
# [23] = target: Phosphatidylinositol 4,5-bisphosphate 3-kinase catalytic subunit gamma isoform (Homo sapiens, UniProt P48736); assay: Inhibition of PI3K-gamma (unknown origin) by kinase selectivity profiling analysis
# [24] = Cmax in ICR mouse at 30 mg/kg, ip measured for 24 hrs by LC-MS/MS analysis; assay type: ADME, organism-based; details: in vivo
# [25] = Terminal half life in ICR mouse at 30 mg/kg, ip measured for 24 hrs by LC-MS/MS analysis; assay type: ADME, organism-based; details: in vivo, read-out: beta t1/2
# [26] = Toxicity in C57BL/6J mouse administered intraperitoneally for 7 days; details: in vivo, route ip, time 7 day
# MDA-MB-453 = assay: Antiproliferative activity against human MDA-MB-453 cells assessed as inhibition of cell viability incubated for 3 days by MTT/CTG assay; details: MDA-MB-453, 72 h
# [27] = Drug metabolism in monkey liver microsomes at 2 uM measured up to 60 mins in absence of NADPH by LC-MS/MS analysis; assay type: ADME, Macaca mulatta, Microsome; details: rhesus monkey, 1 h
# [28] = Drug metabolism in rat liver microsomes at 2 uM measured up to 60 mins in absence of NADPH by LC-MS/MS analysis; assay type: ADME, Microsome; details: 1 h
# [29] = Metabolic stability in human plasma at 2 uM measured up to 60 mins by LC-MS/MS analysis; assay type: ADME, cell-free; details: 1 h
# [30] = target: Voltage-gated inwardly rectifying potassium channel KCNH2 (Homo sapiens, UniProt Q12809); assay: Inhibition of hERG stably expressed in HEK293 cells by whole-cell patch-clamp technique; assay type: toxicity, cell-based
# Mus musculus = assay: In vivo PROTAC activity at CRBN/PI3K-alpha in human HGC-27 cells xenografted in male BALB/c nude mouse model assessed as PI3K-alpha degradation administered intraperitoneally once daily for 14 days consecutively; assay type: functional, organism-based; details: dose 30-60 mg/kg, route ip, time 14.0 day
# [31] = Metabolic stability in dog plasma at 2 uM measured up to 60 mins by LC-MS/MS analysis; assay type: ADME, cell-free, Canis lupus familiaris; details: 1 h
# [32] = Terminal half life in Sprague-Dawley rat at 15 mg/kg, ip measured for 24 hrs by LC-MS/MS analysis; assay type: ADME, organism-based; details: in vivo, read-out: beta t1/2 (converted)
# [33] = AUC (0 to t) in Sprague-Dawley rat at 1.5 mg/kg, iv measured for 24 hrs by LC-MS/MS analysis; assay type: ADME, organism-based; details: in vivo
# T47D [34] = assay: Effect on PI3K-alpha mRNA level in human T47D cells at 1 uM incubated for 24 hrs by RT-PCR analysis; assay type: functional, cell-based
# hERG (KCNH2) = hERG (KCNH2) (Homo sapiens, UniProt Q12809); assay: Inhibition of hERG stably expressed in HEK293 cells at 10 uM by whole-cell patch-clamp technique relative to control; assay type: toxicity, cell-based; details: HEK293 cells stably expressing hERG
# HGC-27 [35] = assay: Antitumor activity against human HGC-27 cells xenografted in male BALB/c nude mouse model at 30 mg/kg, ip qd treated for 14 days consecutively relative to control; assay type: functional; details: HGC-27, 336 h, time 14 day, read-out: TGI
# [36] = Oral bioavailability in Sprague-Dawley rat at 15 mg/kg measured for 24 hrs by LC-MS/MS analysis; assay type: ADME, organism-based; details: in vivo
# [37] = Metabolic stability in rat plasma at 2 uM measured up to 60 mins by LC-MS/MS analysis; assay type: ADME, cell-free; details: 1 h
# [38] = Metabolic stability in mouse plasma at 2 uM measured up to 60 mins by LC-MS/MS analysis; assay type: ADME, cell-free; details: 1 h
# [39] = MRT (0 to t) in ICR mouse at 3 mg/kg, iv measured for 24 hrs by LC-MS/MS analysis; assay type: ADME, organism-based; details: in vivo
# [40] = Toxicity in male BALB/c nude mouse model xenografted with human DOHH-2 cells assessed as drug tolerance at 30 mg/kg, ip qd treated for 21 days consecutively; assay type: organism-based; details: in vivo, 504 h, time 21 day
# DOHH-2 = assay: Antitumor activity against human DOHH-2 cells xenografted in male BALB/c nude mouse model at 30 mg/kg, ip qd treated for 21 days consecutively relative to control; assay type: functional; details: DOHH-2, 504 h, time 21 day, read-out: TGI
# Pfeiffer = assay: Antiproliferative activity against human Pfeiffer cells assessed as inhibition of cell viability incubated for 3 days by MTT/CTG assay; details: 72 h
# [41] = Terminal half life in ICR mouse at 3 mg/kg, iv measured for 24 hrs by LC-MS/MS analysis; assay type: ADME, organism-based; details: in vivo, read-out: beta t1/2 (converted)
# [42] = Cmax in Sprague-Dawley rat at 15 mg/kg, ip measured for 24 hrs by LC-MS/MS analysis; assay type: ADME, organism-based; details: in vivo
# HGC-27 [43] = assay: Antiproliferative activity against human HGC-27 cells assessed as inhibition of cell viability incubated for 3 days by MTT/CTG assay; details: HGC-27, 72 h
# [44] = AUC (0 to t) in Sprague-Dawley rat at 15 mg/kg, ip measured for 24 hrs by LC-MS/MS analysis; assay type: ADME, organism-based; details: in vivo
# [45] = Terminal half life in Sprague-Dawley rat at 1.5 mg/kg, iv measured for 24 hrs by LC-MS/MS analysis; assay type: ADME, organism-based; details: in vivo, read-out: beta t1/2 (converted)
# AGS = assay: Antiproliferative activity against human AGS cells assessed as inhibition of cell viability incubated for 3 days by MTT/CTG assay; details: 72 h
# T47D [46] = assay: Induction of cell cycle arrest in human T47D cells assessed as accumulation at G2/M phase incubated for 24 hrs by PI staining based flow cytometry; assay type: functional; details: dose 0.1-10 µM
# Voltage-gated inwardly rectifying potassium channel KCNH2, sequence (Q12809 whole entry): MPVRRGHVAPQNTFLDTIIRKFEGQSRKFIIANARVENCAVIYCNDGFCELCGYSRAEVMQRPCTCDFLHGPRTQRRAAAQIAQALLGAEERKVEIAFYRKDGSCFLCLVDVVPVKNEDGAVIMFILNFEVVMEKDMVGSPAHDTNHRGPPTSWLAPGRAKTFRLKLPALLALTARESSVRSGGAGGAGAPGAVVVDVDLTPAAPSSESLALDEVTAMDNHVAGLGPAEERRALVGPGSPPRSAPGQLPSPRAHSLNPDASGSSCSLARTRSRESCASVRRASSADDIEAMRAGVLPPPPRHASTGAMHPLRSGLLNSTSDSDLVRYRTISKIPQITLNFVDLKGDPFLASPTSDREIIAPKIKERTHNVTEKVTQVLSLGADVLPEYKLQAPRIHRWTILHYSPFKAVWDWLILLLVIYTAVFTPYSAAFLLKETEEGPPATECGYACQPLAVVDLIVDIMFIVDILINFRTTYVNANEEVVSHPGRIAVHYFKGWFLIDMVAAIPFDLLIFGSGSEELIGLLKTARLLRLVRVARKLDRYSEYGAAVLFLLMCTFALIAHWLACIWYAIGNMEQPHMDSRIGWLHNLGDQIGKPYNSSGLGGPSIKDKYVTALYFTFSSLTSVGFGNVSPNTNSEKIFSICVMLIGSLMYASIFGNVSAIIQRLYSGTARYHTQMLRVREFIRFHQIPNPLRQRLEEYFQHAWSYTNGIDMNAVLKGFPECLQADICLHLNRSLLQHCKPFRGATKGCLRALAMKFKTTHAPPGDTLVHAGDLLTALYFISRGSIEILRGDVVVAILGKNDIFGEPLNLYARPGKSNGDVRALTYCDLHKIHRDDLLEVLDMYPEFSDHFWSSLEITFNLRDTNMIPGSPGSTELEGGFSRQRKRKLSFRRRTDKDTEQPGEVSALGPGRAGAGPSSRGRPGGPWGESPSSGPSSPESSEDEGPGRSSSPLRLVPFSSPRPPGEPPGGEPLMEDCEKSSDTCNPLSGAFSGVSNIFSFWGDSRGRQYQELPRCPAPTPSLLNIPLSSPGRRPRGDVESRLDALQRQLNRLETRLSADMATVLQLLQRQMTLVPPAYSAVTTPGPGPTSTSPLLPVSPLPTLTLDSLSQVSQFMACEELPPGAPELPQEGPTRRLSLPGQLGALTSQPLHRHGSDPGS
# hERG (KCNH2), sequence (Q12809 whole entry): as above
# Phosphatidylinositol 4,5-bisphosphate 3-kinase catalytic subunit gamma isoform, sequence (P48736 whole entry, canonical isoform): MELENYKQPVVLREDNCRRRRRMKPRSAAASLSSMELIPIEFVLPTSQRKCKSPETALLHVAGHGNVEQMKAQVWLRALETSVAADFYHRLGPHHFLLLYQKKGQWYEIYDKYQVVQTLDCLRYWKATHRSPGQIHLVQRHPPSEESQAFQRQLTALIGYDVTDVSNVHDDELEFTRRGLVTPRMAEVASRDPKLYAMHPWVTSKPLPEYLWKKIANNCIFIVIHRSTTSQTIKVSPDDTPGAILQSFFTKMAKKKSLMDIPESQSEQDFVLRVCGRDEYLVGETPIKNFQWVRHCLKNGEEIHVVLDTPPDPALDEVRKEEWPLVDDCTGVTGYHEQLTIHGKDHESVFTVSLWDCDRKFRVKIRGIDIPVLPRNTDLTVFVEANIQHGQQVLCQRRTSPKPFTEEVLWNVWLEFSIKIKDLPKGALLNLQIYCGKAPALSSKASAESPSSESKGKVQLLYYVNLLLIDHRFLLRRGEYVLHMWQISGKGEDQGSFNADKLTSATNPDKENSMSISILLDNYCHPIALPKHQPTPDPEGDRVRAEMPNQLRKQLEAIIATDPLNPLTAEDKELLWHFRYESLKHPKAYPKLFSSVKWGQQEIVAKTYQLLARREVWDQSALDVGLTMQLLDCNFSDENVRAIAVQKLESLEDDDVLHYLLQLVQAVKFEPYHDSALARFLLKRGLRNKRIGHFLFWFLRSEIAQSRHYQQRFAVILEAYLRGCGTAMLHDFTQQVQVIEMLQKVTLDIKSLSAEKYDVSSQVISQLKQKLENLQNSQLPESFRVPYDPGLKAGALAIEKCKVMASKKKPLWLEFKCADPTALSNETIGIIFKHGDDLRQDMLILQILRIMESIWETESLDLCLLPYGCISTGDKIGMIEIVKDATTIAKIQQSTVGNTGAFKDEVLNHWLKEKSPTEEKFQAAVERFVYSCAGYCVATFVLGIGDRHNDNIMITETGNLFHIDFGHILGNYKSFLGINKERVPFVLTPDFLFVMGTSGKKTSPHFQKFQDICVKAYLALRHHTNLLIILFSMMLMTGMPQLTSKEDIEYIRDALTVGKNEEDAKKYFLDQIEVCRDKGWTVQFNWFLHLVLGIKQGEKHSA
smiles,measurement,setting,value
COc1ncc(-c2cc(OCCCCCCCCCCCCNc3cccc4c3C(=O)N(C3CCC(=O)NC3=O)C4=O)c3ncnc(C)c3c2)cc1NS(=O)(=O)c1ccc(F)cc1F (centres undefined),Drug metabolism,[1],metabolite_notdetected
same,Stability,[2],Stable
same,MRT last at 24 h,[3],10.7 h
same,Activity,[4],Non-toxic
same,Drug metabolism,[5],metabolite_notdetected
same,IC50,T47D [6],350 nM
same,half-life at 2 µM,[7],32.5 min
same,half-life at 2 µM,[8],45.7 min
same,MRT last at 24 h,[9],1.98 h
same,half-life at 2 µM,[10],22.6 min
same,AUC(0-t) at 24 h,[11],26300 ng·h/mL
same,IC50,[12],> 50 µM
same,half-life at 2 µM,[13],34.7 min
same,IC50,LNCaP,3.38 µM
same,AUC(0-t) at 24 h,[14],12700 ng·h/mL
same,IC50,PC-3,1480 nM
same,Activity,[15],Non-toxic
same,Activity,[16],Non-toxic
same,Drug metabolism,[17],metabolite_notdetected
same,half-life at 2 µM,[18],67.5 min
same,bioavailability,[19],20%
same,Activity,[20],Non-toxic
same,inhibition in vivo at 60 mg/kg,HGC-27 [21],56.8%
same,MRT last at 24 h,[22],6.05 h
same,IC50,[23],> 10 µM
same,Cmax,[24],1420 ng/mL
same,half-life,[25],> 1440 min
same,MTD at 168 h,[26],> 100 mg/kg
same,IC50,MDA-MB-453,1640 nM
same,Drug metabolism,[27],metabolite_notdetected
same,Drug metabolism,[28],metabolite_notdetected
same,Stability,[29],Stable
same,IC50,[30],> 10 µM
same,Activity,Mus musculus,Dose-dependent-effect
same,Stability,[31],Stable
same,half-life,[32],257 min
same,AUC(0-t) at 24 h,[33],1120 ng·h/mL
same,Activity,T47D [34],No effect
same,inhibition at 10 µM,hERG (KCNH2),10.2%
same,inhibition in vivo at 30 mg/kg,HGC-27 [35],38.3%
same,bioavailability,[36],46.4%
same,Stability,[37],Stable
same,Stability,[38],Stable
same,MRT last at 24 h,[39],6.69 h
same,Activity,[40],Non-toxic
same,inhibition in vivo at 30 mg/kg,DOHH-2,61.8%
same,IC50,Pfeiffer,690 nM
same,half-life,[41],473 min
same,Cmax,[42],555 ng/mL
same,IC50,HGC-27 [43],1450 nM
same,AUC(0-t) at 24 h,[44],5490 ng·h/mL
same,half-life,[45],127 min
same,IC50,AGS,370 nM
same,Activity,T47D [46],Dose-dependent-effect
